Data taken from patent publication US20250099420A1, “SMALL MOLECULE MODULATORS OF GPR139 COMPLEX” (University of Florida Research Foundation, Incorporated, priority 2022, published 2025).
Like-named read-outs stand apart in the source and are kept apart here.

Key:
parental HEK cells = experiment: HEK parental Agonist Counterscreen Assay (non-transfected cells); type: cell-based; conditions: for Averaged Max % Response (±St. Dev.): activity relative to known control
Description: The high control for the agonist counterscreen was Forskolin not acetylcholine.

GPR139 = target: T1, GPR139 (Homo sapiens, UniProt Q6DWJ6); experiment: GPR139 Agonist titration / agonist counterscreen assay (calcium detection, HEK-GPR139 cells); type: cell-based; set-up: expressed in transfected cells; host or cells: HEK Aequorin cells, Maxcyte transient transfection; conditions: GPR139 Agonist Activity; for EC50: read-out: EC50; for Averaged Max % Response (±St. Dev.): activity relative to known control
T1 sequence (Q6DWJ6 1-353): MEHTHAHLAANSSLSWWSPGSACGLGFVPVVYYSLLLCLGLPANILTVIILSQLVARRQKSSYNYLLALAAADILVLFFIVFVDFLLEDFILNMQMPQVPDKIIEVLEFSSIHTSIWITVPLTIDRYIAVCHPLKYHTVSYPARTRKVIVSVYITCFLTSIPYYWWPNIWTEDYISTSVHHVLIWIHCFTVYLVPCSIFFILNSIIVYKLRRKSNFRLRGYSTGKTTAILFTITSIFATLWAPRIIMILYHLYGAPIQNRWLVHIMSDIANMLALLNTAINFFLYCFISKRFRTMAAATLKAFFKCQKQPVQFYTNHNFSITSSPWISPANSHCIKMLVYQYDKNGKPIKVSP
Procedure: GPR activity was assessed using a calcium detection assay. […] Negative control samples were treated with DMSO. […] Intracellular calcium was measured using Calcium 5.

[1] = Homo sapiens, HEK293, HEK Agonist Activity section of Table 4 (parental HEK counterscreen)
[2] = HEK Agonist Activity section of Table 4 (parental HEK counterscreen)
[3] = values printed in E-notation without unit

Row | SMILES | Lipophilic Efficiency (logD) (parental HEK cells; HEK Agonist Activity section) | Lipophilic Efficiency (logP) (parental HEK cells; HEK Agonist Activity section) | Averaged Max % Response (±St. Dev.) (parental HEK cells; HEK Agonist Activity section) [%] | EC50 (parental HEK cells; [1]) [µM] | Efficiency Ligand (GPR139) | Hill Slope (GPR139) | Lipophilic Efficiency (logD) (GPR139) | Lipophilic Efficiency (logP) (GPR139) | EC50 (GPR139; HEK-GPR139 cells) [µM] | Averaged Max % Response (±St. Dev.) (GPR139) [%] | EC50 (parental HEK cells; [2]) [µM] | Lipophilic Efficiency (logD) (GPR139; based on logD) | Lipophilic Efficiency (logP) (GPR139; based on logP) | Hill Slope (GPR139; fitted dose-response curve) | Efficiency Ligand (GPR139; ligand efficiency) | EC50 (GPR139; [3]) [µM] | Lipophilic Efficiency (logD) (parental HEK cells; HEK Agonist Activity) | Lipophilic Efficiency (logP) (parental HEK cells; HEK Agonist Activity) | Averaged Max % Response (±St. Dev.) (parental HEK cells; HEK Agonist Activity) [%] | EC50 (parental HEK cells; Homo sapiens, HEK293, HEK Agonist Activity, parental non-transfected HEK cells) [µM]
1 | CC(Oc1ccccc1)C(=O)NCCn1ccc2ccccc21 (stereo not shown) [SR-01000124163] | 1.45 | 1.45 | −3.45 ± 3.02 | > 14.1 | 0.36 | 1.37 | 2.59 | 2.59 | 1 | 90.02 ± 28.06 | – | – | – | – | – | – | – | – | – | –
2 | COc1ccc2cc(CCNC(=O)/C=C\c3ccc4c(c3)OCO4)c(=O)[nH]c2c1 [SR-01000124392] | 2.31 | 2.31 | 5.97 ± 7.64 | – | 0.28 | 0.49 | 3.17 | 3.17 | 2 | 80.01 ± 6.26 | > 14.1 | – | – | – | – | – | – | – | – | –
3 | COc1cc(C(=O)NCCn2ccc3ccccc32)cc(OC)c1OC [SR-01000124399] | 2.15 | 2.15 | −5.54 ± 8.42 | > 14.1 | – | – | – | – | – | 147.35 ± 21.79 | – | 4.50 | 4.50 | 0.70 | 0.39 | 0.0629 | – | – | – | –
4 | O=C(NCCc1ccc(Cl)cc1)c1nnc(Cc2ccc(F)cc2)o1 [SR-01000125346] | 1.73 | 1.73 | 18.06 ± 8.45 | > 14.1 | 0.34 | 1.86 | 2.95 | 2.95 | 0.84 | 91.83 ± 43.39 | – | – | – | – | – | – | – | – | – | –
5 | O=C(CN1CCN(Cc2ccccc2Cl)C1=O)NCc1ccccc1Cl [SR-01000125458] | – | – | – | – | – | – | – | – | – | 119.40 ± 41.91 | – | 4.54 | 4.54 | 0.73 | 0.40 | 0.0358 | 1.94 | 1.94 | −1.02 ± 2.16 | > 14.1
6 | O=C(CN1CCN(Cc2ccccc2Cl)C1=O)NC1CCCCCC1 [SR-01000125460] | 2.02 | 2.02 | −2.02 ± 12.81 | – | – | – | – | – | – | 95.59 ± 27.48 | > 14.1 | 4.03 | 4.03 | 1.03 | 0.38 | 0.141 | – | – | – | –
7 | O=C(CN1CCN(Cc2ccccc2Cl)C1=O)NC1CCCCCCC1 [SR-01000125462] | 1.58 | 1.58 | 6.02 ± 12.03 | – | – | – | – | – | – | 92.90 ± 12.57 | > 14.1 | 3.53 | 3.53 | 1.38 | 0.37 | 0.159 | – | – | – | –
